Results on one substance are retold here after patent US20030148954A1, “Agents and methods for modulating activator protein-1-mediated cellular processes” (Wisconsin Alumni Research Foundation, priority 2001, published 2003).

Entries after “also recorded” stand apart in the source; their conditions may differ.

One test has as its system AP-1. The test can be described thus: AP-1 luciferase reporter, transient transfection of K562 cells. The test is classed as cell-based, human. From the text:
(§1) Plasmids—The pBabe-NIC-1 (pNIC-1) expression vector encoding constitutively active Notch-1 (NIC-1) was described previously (36,37,51). This vector was derived from the pBabe-puro retroviral vector and includes a cDNA sequence encoding amino acids 1759-2556 of human Notch-1 with a Myc tag fused to its carboxyl terminus. Human NIC-1 deletion mutants were generated by PCR using a full-length human Notch-1 expression vector as the template. The Notch-dependent reporter plasmid containing four CBF1 binding sites and an simian virus 40 promoter fused to luciferase (p4×CBF1luc) was described previously (52). The AP-1 reporter plasmid (p1×AP1luc) containing a collagenase promoter fragment (−73/+67) with a single AP-1 binding site in the luciferase reporter vector pGL2-basic (Promega) was described previously (53). The NF-κB reporter plasmid (p3×κBluc) containing three NF-κB binding sites and a minimal promoter fused to luciferase was a kind gift of Dr. Shigeki Miyamoto (University of Wisconsin Medical School). The pBabe-H-Ras(12V) expression vector encoding constitutively active H-Ras was a kind gift of Dr. Charming Der (University of North Carolina-Chapel Hill). This vector was derived from the pBabe-puro retroviral vector and includes a cDNA encoding H-Ras with a Gly to Val mutation at amino acid 12.
Transient Transfections—K562 cells (5×10^5) were collected by centrifugation at 240×g for 8 min at 4° C. and resuspended in 4 ml of complete IMEM. Plasmid DNAs (1 μg of reporter and 2 μg of effector) were added to 150 μl of IMEM, incubated with Superfect (4 μl/1 μg DNA; Qiagen) for 10 min at room temperature and then added to cells.
For each transfection, cells were incubated for 26 h after transfection and then treated with TPA (final concentration: 5 nM) or the vehicle (DMSO). After incubating for another 12 or 16 h, cells were harvested and assayed for luciferase activity. Luciferase activity was normalized by the protein content of the lysates, determined by Bradford assay using γ-globulin as a standard.
In general terms: Reporter assays use an easily measured gene product as a stand-in for the process of interest.

The test system of a further test is CSL (CBF1). Nature of the test: CSL-dependent luciferase reporter, transient transfection of HeLa cells. It counts as cell-based, human.
Source text: as §1, with “The pBabe-H-Ras(12V) expression vector encoding constitutively active H-Ras was a kind gift of Dr. Charming Der (University of North Carolina-Chapel Hill). This vector was derived from the pBabe-puro retroviral vector and includes a cDNA encoding H-Ras with a Gly to Val mutation at amino acid 12.” left out
For each transfection, cells were incubated for 26 h after transfection and then treated with TPA (final concentration: 5 nM) or the vehicle (DMSO). […] Luciferase activity was normalized by the protein content of the lysates, determined by Bradford assay using γ-globulin as a standard.

The target of the next test is T1, CBF1 (Homo sapiens, UniProt Q06330).
T1 construct: endogenous in cells; host or cells: K562 cells retrovirally infected with NIC-1 expression vectors
T1 sequence (Q06330 whole entry): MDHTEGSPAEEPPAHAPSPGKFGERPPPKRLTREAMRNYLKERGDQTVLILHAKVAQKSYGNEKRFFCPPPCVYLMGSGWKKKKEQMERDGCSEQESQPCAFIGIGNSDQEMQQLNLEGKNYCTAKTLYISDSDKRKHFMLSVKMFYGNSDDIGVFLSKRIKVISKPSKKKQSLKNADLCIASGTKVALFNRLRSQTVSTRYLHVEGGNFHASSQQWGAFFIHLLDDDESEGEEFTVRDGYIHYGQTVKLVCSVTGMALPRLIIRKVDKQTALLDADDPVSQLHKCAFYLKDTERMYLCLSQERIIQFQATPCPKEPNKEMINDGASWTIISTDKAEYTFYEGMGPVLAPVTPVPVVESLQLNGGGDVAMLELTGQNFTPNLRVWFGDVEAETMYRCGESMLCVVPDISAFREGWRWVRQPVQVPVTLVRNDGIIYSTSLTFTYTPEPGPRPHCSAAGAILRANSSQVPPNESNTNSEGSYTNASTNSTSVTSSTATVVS
The test can be described thus: Coimmunoprecipitation of CBF1 with NIC-1 from K562 cell lysates. The conditions noted are these: K562 cells, retroviral infection. It counts as binding. Here is the method:
Retroviral Infection—Modified 293 human embryonic kidney cells were grown in 10 cm dishes until they were subconfluent and were cotransfected with plasmid DNA (15 μg) and pMD.G (6 μg) by the calcium phosphate transfection method as described previously (55). The medium was changed once after 10 h of transfection to remove the calcium phosphate. The pMD.G expression vector encodes the viral envelope protein VSV-G. The modified 293 cells were previously stably transfected with pol and gag genes (gift of Shigeki Miyamoto, University of Wisconsin Medical School). After additional incubation for 12 h, the medium was removed and K562 cells (10 ml, 3×10^5/ml) were added with polybrene (4 μg/ml) in complete IMEM and incubated for 36 h. The infected cells were separated from adherent 293 cells and then subjected to immunoprecipitation analysis.
Western Blotting—To detect the expression of Myc-tagged wild type NIC-1 and NIC-1 mutants, whole cell lysates were prepared in Nonidet P-40 lysis buffer (50 mM Hepes, pH 7.4, 1 mM EDTA, 150 mM NaCl, 10% glycerol, 1% Nonidet P-40, 2 mM DTT, 0.2 mM phenylmethanesulfonyl fluoride, and 20 μg/ml leupeptin). […] The proteins were transferred to an Immobilon P membrane (Millipore) and detected by immunoblotting with the anti-Myc tag monoclonal antibody 9E10. CBF1 was detected by immunoblotting with anti-CBF1 polyclonal antisera (Lam & Bresnick, unpublished data).

Regarding “NIC-1: constitutively active Notch-1 intracellular domain, amino acids 1759-2556 of human Notch-1 with carboxyl-terminal Myc tag, expressed from pBabe-NIC-1”, in the test on AP-1 (K562, both AP-1 reporters), the “component of TPA-induced AP-1 reporter activity insensitive to NIC-1” value is on record as around 30%. The “inhibition of H-Ras(12V)-activated AP-1 reporter activity” value in the test on AP-1 (K562, cotransfected pBabe-H-Ras(12V)) was “almost completely inhibited; also recorded: completely inhibits”. Also, the “concentration response curve for AP-1 repression relative to CSL-dependent activation” value with AP-1 (K562, increasing amounts of NIC-1 expression vector, TPA 5 nM 12 h) is reported as “slightly shifted to the left”. The “repression of TPA-induced AP-1 reporter activity” value in the test on AP-1 (K562, p1×AP1luc, TPA 5 nM 12 or 16 h) was “repressed”. Moreover, the “degree of repression of AP-1 reporter with tandem AP-1 binding sites upstream of a β-globin promoter” value with AP-1 (K562, pβ106(AP1)2luc, TPA) is recorded as “comparable to that seen with the MMP1 promoter”. Also, in the test on AP-1 (K562, range of TPA concentrations, 16 h), the “inhibition of TPA-inducible AP-1 activity” value is 70%. In the test with CSL (CBF1), the “activation of CSL-dependent reporter activity” value is given as “strongly activated”. The “recovery of CBF1 in anti-NIC-1 immunoprecipitates” value in the test with CBF1 is listed as “coimmunoprecipitated”.
